Measurements from ChEMBL document CHEMBL5038651, “Design, Synthesis, and Biological Evaluation of 2-((4-Bisarylmethyl-piperazin-1-yl)methyl)benzonitrile Derivatives as HCV Entry Inhibitors” (J Med Chem, 2022).
Active and inactive are the calls of the source. The rule behind the calls is not given here.

Columns and labels:
[1] = system: Hepatitis C virus; assay: Antiviral activity against HCV infected in human Huh7.5 cells incubated for 72 hrs by in-cell western assay; format: functional, organism-based, Hepacivirus hominis; conditions: Huh7.5, 72 h
[2] = (§1) Cytotoxicity against human Huh7.5 cells assessed as reduction in cell viability incubated for 96 hrs by MTT assay; format: toxicity, cell-based, Huh-7.5; conditions: Huh7.5 cells
[3] = system: Hepacivirus hominis; assay: Binding affinity to HCV E1 protein at 12.5 to 200 uM by SPR analysis; conditions: dose 12.5-200 µM
[4] = Selectivity index, ratio of CC50 for cytotoxicity against human Huh7.5.1 cells to EC50 for antiviral activity against HCV infected in human Huh7.5.1 cells; format: toxicity, cell-based
[5] = Tmax in Sprague-Dawley rat at 15 mg/kg, po administered as single dose measured upto 24 hrs by LC-MS/MS analysis; format: ADME, organism-based; conditions: in vivo
[6] = Cytotoxicity against human Huh7.5 cells carrying HCV subgenomic replicons assessed as reduction in cell viability incubated for 96 hrs by MTT assay; format: toxicity, cell-based, Huh-7.5
[7] = system: Hepatitis C virus; assay: Antiviral activity against HCVcc infected in human Huh7.5 cells assessed as inhibition of viral replication; format: functional, organism-based, Hepacivirus hominis
[8] = system: Hepatitis C virus; assay: Antiviral activity against HCV infected in human Huh7.5 cells assessed as reduction in HCV core protein expression at 6.4 nM incubated for 72 hrs by in-cell western assay; format: functional, organism-based; conditions: Hepacivirus hominis
[9] = system: Hepatitis C virus; assay: Antiviral activity against HCV infected in human Huh7.5 cells assessed as reduction in HCV core protein expression preincubated for 2 hrs followed by viral infection and measured after 72 hrs by Western blotting analysis; format: functional, organism-based; conditions: Hepacivirus hominis, time 74.0 hrs
[10] = AUC (0 to infinity) in Sprague-Dawley rat at 15 mg/kg, po administered as single dose measured upto 24 hrs by LC-MS/MS analysis; format: ADME, organism-based; parameters: route oral, dose 15 mg/kg, time <=24; conditions: in vivo
[11] = system: Hepatitis C virus; assay: Antiviral activity against HCV infected in human Huh7.5 cells assessed as reduction in viral RNA level preincubated for 2 hrs prior to viral infection and measured after 72 hrs by RT-qPCR analysis; format: functional, organism-based; conditions: Hepacivirus hominis, time 74.0 hrs
[12] = Plasma concentration in Sprague-Dawley rat at 15 mg/kg, po administered as single dose measured up to 24 hrs by LC-MS/MS analysis; format: ADME, organism-based
[13] = MRT in Sprague-Dawley rat at 15 mg/kg, po administered as single dose measured upto 24 hrs by LC-MS/MS analysis; format: ADME, organism-based; conditions: in vivo
[14] = system: Hepatitis C virus; assay: Antiviral activity against HCV infected in human Huh7.5 cells carrying HCV subgenomic replicons assessed as inhibition of viral replication; format: functional, organism-based, Hepacivirus hominis
[15] = system: Hepatitis C virus; assay: Antiviral activity against HCV infected in human Huh7.5 cells carrying HCV subgenomic replicons assessed as inhibition of viral replication at 1.4 uM; format: functional, organism-based; conditions: Hepacivirus hominis
[16] = biological target: Histamine H1 receptor (Homo sapiens) (UniProt P35367); assay: Antagonist activity against H1 receptor (unknown origin) expressed in HEK cells at 1 uM relative to control; format: functional, cell-based
[17] = system: Hepatitis C virus; assay: Antiviral activity against HCV infected in human Huh7.5 cells assessed as reduction in HCV core protein expression pre-infected with virus for 2 hrs followed by compound addition and measured after 72 hrs by Western blotting analysis; format: functional, organism-based; conditions: Hepacivirus hominis
[18] = system: Hepatitis C virus; assay: Antiviral activity against HCV infected in human Huh7.5 cells assessed as reduction in viral RNA level measured after 72 hrs by RT-qPCR analysis; format: functional, organism-based; conditions: Hepacivirus hominis
[19] = Cytotoxicity against human Huh7.5 cells infected with HCVcc assessed as reduction in cell viability incubated for 96 hrs by MTT assay; format: toxicity, cell-based, Huh-7.5
[20] = system: Hepatitis C virus; assay: Antiviral activity against HCV infected in human Huh7.5 cells assessed as reduction in viral RNA level pre-infected with virus for 2 hrs followed by compound addition and measured after 72 hrs by RT-qPCR analysis; format: functional, organism-based; conditions: Hepacivirus hominis
[21] = system: Hepatitis C virus; assay: Antiviral activity against HCV infected in human Huh7.5 cells assessed as reduction in HCV core protein expression measured after 72 hrs by Western blotting analysis; format: functional, organism-based; conditions: Hepacivirus hominis
[22] = Cmax in Sprague-Dawley rat at 15 mg/kg, po administered as single dose measured upto 24 hrs by LC-MS/MS analysis; format: ADME, organism-based; parameters: route oral, dose 15 mg/kg, time <=24; conditions: in vivo
[23] = Half life in Sprague-Dawley rat at 15 mg/kg, po administered as single dose measured upto 24 hrs by LC-MS/MS analysis; format: ADME, organism-based; conditions: in vivo
[24] = Selectivity index, ratio of CC50 for cytotoxicity against human Huh7.5 cells infected with HCVcc to EC50 for antiviral activity against HCVcc infected in human Huh7.5 cells; format: toxicity, cell-based; conditions: read-out: Ratio CC50/EC50
[25] = system: Huh-7.5; assay: as §1; format: toxicity, cell-based; conditions: huh-7.5, 96 h, 96 h

Chain of Histamine H1 receptor (Homo sapiens) (P35367 whole entry): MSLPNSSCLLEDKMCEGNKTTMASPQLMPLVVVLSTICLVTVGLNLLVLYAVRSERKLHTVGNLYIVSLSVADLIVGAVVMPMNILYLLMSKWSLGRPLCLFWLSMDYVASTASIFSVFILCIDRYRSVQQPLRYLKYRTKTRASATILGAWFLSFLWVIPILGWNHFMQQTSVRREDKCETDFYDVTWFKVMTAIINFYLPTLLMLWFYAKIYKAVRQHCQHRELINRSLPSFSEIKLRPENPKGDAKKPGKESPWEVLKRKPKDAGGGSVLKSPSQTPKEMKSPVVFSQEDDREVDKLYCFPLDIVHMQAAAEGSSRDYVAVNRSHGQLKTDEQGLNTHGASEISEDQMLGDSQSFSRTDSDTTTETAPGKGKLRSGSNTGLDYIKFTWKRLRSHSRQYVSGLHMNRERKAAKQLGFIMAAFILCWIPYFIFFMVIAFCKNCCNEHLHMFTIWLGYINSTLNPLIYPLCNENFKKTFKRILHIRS

Compound | EC50 [1] | CC50 at 96 h [2] | selectivity ratio ([4]; read-out: Ratio CC50/EC50) | other results
CN(C)CCN(C)c1ccc(C(F)(F)F)c(CN2CCN(C(c3ccccc3)c3ccc(Cl)cc3)CC2)c1 (stereo not given) | 0.271 µM | 6.96 µM | 26 | 
CN1CCCN(c2ccc(C#N)c(CN3CCN(C(=O)c4ccc(F)cc4)CC3)c2)CC1 | > 4 µM | 13.8 µM |  | 
CN(C)CCN(C)c1ccc(C#N)c(CN2CCN(C(=O)c3ccc(Cl)cc3)CC2)c1 | 12.2 µM | 10.1 µM |  | 
N#Cc1ccc(NCCCn2ccnc2)cc1CN1CCN(C(c2ccccc2)c2ccccc2)CC1 | 0.243 µM | > 20 µM | > 82 | 
CN1CCCN(c2ccc(C#N)c(CN3CCN(C(=O)c4ccc(Cl)cc4)CC3)c2)CC1 | > 4 µM | 9.7 µM |  | 
COCCOc1ccc(C#N)c(CN2CCN(C(c3ccc(F)cc3)c3ccc(F)cc3)CC2)c1 | > 20 µM | 6.45 µM |  | 
CN1CCN(C(c2ccccc2)c2ccc(Cl)cc2)CC1 (stereo not given) [CHLORCYCLIZINE] |  |  |  | CC50 at 96 h [6]: 30.2 µM; EC50 [7]: 0.0676 µM; Activity [8]: inactive; EC50 [14]: > 1.6 µM; selectivity ratio [24]: 456; inhibition ([16]; filed as antagonist): 99%; CC50 at 96 h [19]: 30.8 µM
CN(C)CCN(C)c1ccc(C#N)c(CN2CCN(Cc3ccc(F)cc3)CC2)c1 | 3.56 µM | 52.7 µM | 14 | 
CN1CCCN(c2ccc(C#N)c(CN3CCN(Cc4ccccc4)CC3)c2)CC1 | 21.1 µM | > 100 µM |  | 
COCCOc1ccc(C#N)c(CN2CCN(c3ccc(C(F)(F)F)cc3)CC2)c1 | 1.52 µM | 2.97 µM |  | 
CN(C)CCN(C)c1ccc(C#N)c(CN2CCN(c3ccc(Cl)cc3)CC2)c1 | 0.175 µM | 21.2 µM | > 81 | CC50 at 96 h [6]: 121 µM; EC50 [7]: 0.26 µM; CC50 [25]: > 20 µM; Activity [8]: inactive; EC50 [14]: > 1.6 µM; selectivity ratio [24]: 72; Activity [3]: Active; Activity [16]: inactive; CC50 at 96 h [19]: 18.8 µM; selectivity ratio ([4]; read-out: Ratio): > 114

Further lines, with some results ahead:

EC50 [1] | Compound | CC50 at 96 h [2] | selectivity ratio ([4]; read-out: Ratio CC50/EC50) | other results
0.008 µM | CN(C)CCN(C)c1ccc(C#N)c(CN2CCN(C(c3ccc(F)cc3)c3ccc(F)cc3)CC2)c1 | 7.81 µM | 976 | Activity [3]: Active
0.004 µM | CN1CCCN(c2ccc(C#N)c(CN3CCN(C(c4ccccc4)c4ccc(Cl)cc4)CC3)c2)CC1 (stereo not given) | 7.34 µM | 1930 | Tmax [5]: 5.33 h; CC50 at 96 h [6]: 5.22 µM; EC50 [7]: 0.00333 µM; Activity [8]: Active; Activity [9]: inactive; AUC(0-inf) [10]: 848 ng·h/mL; Activity [11]: inactive; concentration at 24 h [12]: 6.06 ng/mL; MRT [13]: 8.59 h; EC50 [14]: > 1.6 µM; Activity [15]: inactive; Activity [3]: Active; Activity [16]: inactive; Activity [17]: Active; Activity [18]: inactive; CC50 at 96 h [19]: 3.72 µM; Activity [20]: Active; Activity [21]: Active; Cmax [22]: 97.9 ng/mL; half-life [23]: 4.87 h
0.013 µM | CN(C)CCN(C)c1ccc(C#N)c(CN2CCN(c3ccc(C(F)(F)F)cc3)CC2)c1 | 13.2 µM | 1010 | 
0.01 µM | CN(C)CCN(C)c1ccc(C#N)c(CN2CCN([C@H](c3ccccc3)c3ccc(Cl)cc3)CC2)c1 | 8.23 µM | 823 | 
0.073 µM | CN(C)CCN(C)CCN(C)c1ccc(C#N)c(CN2CCN(C(c3ccccc3)c3ccc(Cl)cc3)CC2)c1 (stereo not given) | 6.34 µM | 87 | 
0.162 µM | N#Cc1ccc(NCCCn2ccnc2)cc1CN1CCN(C(c2ccc(F)cc2)c2ccc(F)cc2)CC1 | 5.89 µM | 36 | 
